# According to BindingDB's records for doi:10.1021/jm0303094 (Aton Pharma, 2003):
# Target: Histone deacetylase
# Assay: Inhibitory concentration determined against Histone deacetylase from Eimeria tenella
row,SMILES,IC50
1,"CCC(C)[C@@H]1NC(=O)[C@H](Cc2cn(OC)c3ccccc23)NC(=O)[C@H](CCCCCC(=O)NO)NC(=O)[C@H]2CCCCN2C1=O (stereo partly drawn) [6-[(6S,9S,12S,14aR)-6-sec-Butyl-9-(1-methoxy-1H-indol-3-ylmethyl)-5,8,11,14-tetraoxo-tetradecahydro-4a,7,10,13-tetraaza-benzocyclododecen-12-yl]-hexanoic acid hydroxyamide]",4 nM
2,"CCC(C)[C@@H]1NC(=O)[C@H](Cc2cn(OC)c3ccccc23)NC(=O)[C@H](CCCCCC(=O)O)NC(=O)[C@H]2CCCCN2C1=O (stereo partly drawn) [6-[(6S,9S,12S,14aR)-6-sec-Butyl-9-(1-methoxy-1H-indol-3-ylmethyl)-5,8,11,14-tetraoxo-tetradecahydro-4a,7,10,13-tetraaza-benzocyclododecen-12-yl]-hexanoic acid]",30 nM
3,"CCC(C)[C@@H]1NC(=O)[C@H](Cc2cn(OC)c3ccccc23)NC(=O)[C@H](CCCCCC(=O)C2CO2)NC(=O)[C@H]2CCCCN2C1=O (stereo partly drawn) [(6S,9S,12S,14aR)-6-sec-Butyl-9-(1-methoxy-1H-indol-3-ylmethyl)-12-(6-oxiranyl-6-oxo-hexyl)-decahydro-4a,7,10,13-tetraaza-benzocyclododecene-5,8,11,14-tetraone]",1 nM
4,"CCC(C)[C@@H]1NC(=O)[C@H](Cc2cn(OC)c3ccccc23)NC(=O)[C@H](CCCCCC(=O)C(C)O)NC(=O)[C@H]2CCCCN2C1=O (stereo partly drawn) [(6S,9S,12S,14aR)-6-sec-Butyl-12-(7-hydroxy-6-oxo-octyl)-9-(1-methoxy-1H-indol-3-ylmethyl)-decahydro-4a,7,10,13-tetraaza-benzocyclododecene-5,8,11,14-tetraone]",4 nM
5,"CCC(C)[C@@H]1NC(=O)[C@H](Cc2cn(OC)c3ccccc23)NC(=O)[C@H](CCCCCC(=O)OC)NC(=O)[C@H]2CCCCN2C1=O (stereo partly drawn) [6-[(6S,9S,12S,14aR)-6-sec-Butyl-9-(1-methoxy-1H-indol-3-ylmethyl)-5,8,11,14-tetraoxo-tetradecahydro-4a,7,10,13-tetraaza-benzocyclododecen-12-yl]-hexanoic acid methyl ester]",0.8 nM

# Target: not listed separately
# Assay: Inhibition of acetylation of histone-4 in human T-24 cancer cells
row,SMILES,EC50
1,"COc1ccc(S(=O)(=O)Nc2ccc(/C=C/C(=O)NO)cc2)cc1 [US8796330, 113]",5000 nM
2,"COc1ccc(S(=O)(=O)Nc2ccc(/C=C/C(=O)NO)cc2)cc1OC [US8796330, 90]",1000 nM
3,"O=C(/C=C/c1ccc(NS(=O)(=O)c2ccc(-c3ccccc3)cc2)cc1)NO [US8796330, 120]",1000 nM
4,"Cc1ccc(S(=O)(=O)Nc2ccc(/C=C/C(=O)NO)cc2)cc1 [US8796330, 108]",10000 nM
5,O=C(NO)c1ccc(NS(=O)(=O)c2ccccc2)cc1 [4-Benzenesulfonylamino-N-hydroxy-benzamide],5000 nM
6,"CC(C)C(Cc1ccc(NS(=O)(=O)c2ccccc2)cc1)C(=O)NO (stereo not given) [US8796330, 81]",> 25000 nM
7,"O=C(CCc1ccc(NS(=O)(=O)c2ccccc2)cc1)NO [US8796330, 38]",5000 nM
8,COc1ccc(NC(=O)Nc2ccc(/C=C/C(=O)NO)cc2)cc1OC,> 25000 nM
9,CN(c1ccc(/C=C/C(=O)NO)cc1)S(=O)(=O)c1ccccc1,> 25000 nM
10,CC(Cc1ccc(NS(=O)(=O)c2ccccc2)cc1)C(=O)NO (stereo not given) [3-(4-Benzenesulfonylamino-phenyl)-N-hydroxy-2-methyl-propionamide],> 25000 nM
11,"C/C(=C\c1ccc(NS(=O)(=O)c2ccccc2)cc1)C(=O)NO [US8796330, 91]",> 25000 nM
12,O=C(/C=C/c1ccc(S(=O)(=O)Nc2ccc(-c3ccccc3)cc2)cc1)NO,1000 nM
13,"O=C(CCCc1ccc(NS(=O)(=O)c2ccccc2)cc1)NO [US8796330, 42]",> 25000 nM
14,"Cc1ccc(NS(=O)(=O)c2ccc(/C=C/C(=O)NO)cc2)cc1 [US8796330, 161]",1000 nM
15,O=C(Cc1ccc(NS(=O)(=O)c2ccccc2)cc1)NO [2-(4-Benzenesulfonylamino-phenyl)-N-hydroxy-acetamide],> 25000 nM
